{
  "source": "patent US10857193B2",
  "about": "“Extract formulation of Opuntia ficus indica” (FINZELBERG GMBH & CO. KG, priority 2007, dated 2020)",
  "system": "blood glucose",
  "assay": "Oral glucose tolerance test (oGTT), hypoglycaemic effect in an animal model",
  "type": "in vivo, Wistar rats",
  "conditions": "oGTT in rats, result in words; FIG. 3 expressed as percent AUC vs control, n=5-6 per group",
  "experimental": "A standard means of testing extracts or novel chemical compounds for effects on blood sugar levels is the oGTT (Verspohl, 2002). This involves administering the extract, a blind control or a known anti-diabetic to different groups of a rat population and administering an […] dose of glucose to a sub-group of each group. The extracts were administered 30 minutes before the glucose. Blood samples were taken sublingually 0, 15, 30, 60 and 120 minutes after glucose administration or at 0, 30, 60, 120 and 180 minutes for baseline blood sugar levels. The sampling schedule described served both to track the effect of the extracts on baseline blood sugar levels over a longer period and to track the effect on blood sugar levels following a glucose load.\nAll of the tested extracts, the blind control and the glibenclamide reference oral anti-diabetic contained propylene glycol as a solubilising agent and were administered orally via a feeding tube. […]\nThe samples were centrifuged at 8600 U/min for 10 minutes. The plasma supernatant was then analysed using an autoanalyser (Merck, Darmstadt). […]\nConcentrations and kinetic data were analysed in Graphpad 4.0 (San Diego, USA) using one-way variance analysis (ANOVA) and the Newman-Keuls multiple comparison test. The area under the curve (AUC) was determined using the trapezoidal method without extrapolation beyond the final sampling point.",
  "data": [
    {"smiles": "COc1ccc(Cl)cc1C(=O)NCCc1ccc(S(=O)(=O)NC(=O)NC2CCCCC2)cc1", "note": "[glibenclamide, Glibenclamide]", "values": [
      {"measurement": "hypoglycaemic effect", "result": "hypoglycaemic effect"}
    ]}
  ]
}
